How the values were obtained:
[1] = Reconstituted oritavancin/HPCD solution diluted in 0.9% saline: pH and observation for precipitation; assay type: physicochemical; conditions: for pH: RT
[2] = pH adjustment of oritavancin/HPCD solution with 1N NaOH: visual observations; assay type: physicochemical; conditions: for Observations: 20% w/v HPCD reconstitution (3 mL aliquot)
Description: Reconstituting Orbactiv 400 mg (Oritavancin) in 20% w/v HPCD, diluting in saline then adjusting pH. The 50 mg/mL solution of oritavancin in 20% w/v HPCD (described in Table 3) was further diluted in 0.9% saline to 6 mg/mL in a small glass vial. The pH was adjusted using 1N NaOH. NaOH was added to the oritavancin solution in […] and vortexed. Visual observations and pH were recorded (Table 5).
Reconstituting Orbactiv 400 mg (Oritavancin) in 50% w/v HPCD aqueous solution, adjusting pH then diluting in saline. 6.269 g of HPCD was dissolved in 12.538 mL of water to make a 50% w/v solution (pH=7.23). Seven (7) mL of the 50% w/v solution was added to a 400 mg vial of Orbactiv for a target oritavancin concentration of 57.14 mg/mL. […] A 2 mL aliquot of 57.14 mg/mL was removed from the vial and placed in a small glass vial. The pH was adjusted to 6.5 using 1N NaOH. NaOH was added to the oritavancin solution in 5 μL increments and vortexed. Visual observations and pH were recorded (Table 6).
Reconstituting Orbactiv 400 mg (Oritavancin) in 50% w/v aqueous HPCD, adjusting pH then diluting in saline. 6.112 g of HPCD was dissolved in 12.224 mL of water to make a 50% w/v solution (pH=6.74). Seven (7) mL of the 50% w/v HPCD solution was added to a 400 mg vial of Orbactiv for a target oritavancin concentration of 57.14 mg/mL. […] A 3 mL aliquot of 57.14 mg/mL was removed from the vial and placed in a small glass vial. The pH was adjusted to 7 using 1N NaOH. NaOH was added to the oritavancin solution in 5 μL increments and vortexed. Visual observations and pH were recorded (Table 8).
Reconstituting Orbactiv 400 mg (Oritavancin) in 20% w/v aqueous HPCD, adjusting pH then diluting in saline. 3.555 g of HPCD was dissolved in 17.775 mL of water to make a 20% w/v solution (pH=6.88). Seven (7) mL of the 20% w/v HPCD solution was added to a 400 mg vial of Orbactiv for a target oritavancin concentration of 57.14 mg/mL. […] A 3 mL aliquot of 57.14 mg/mL was removed from the vial and placed in a small glass vial. The pH was adjusted to 7 using 1N NaOH. NaOH was added to the oritavancin solution in 5 μL increments and vortexed. Visual observations and pH were recorded. (Table 10).

[3] = 20% w/v HPCD reconstitution diluted to 5 mg/mL in 0.9% saline, rechecked one month later
[4] = 50% HPCD reconstitution diluted to 5 mg/mL in 0.9% saline, rechecked one month later

CN[C@H](CC(C)C)C(=O)N[C@H]1C(=O)N[C@@H](CC(N)=O)C(=O)N[C@H]2C(=O)N[C@H]3C(=O)N[C@H](C(=O)N[C@H](C(=O)O)c4cc(O)cc(O)c4-c4cc3ccc4O)[C@H](O[C@H]3C[C@](C)(N)[C@@H](O)[C@H](C)O3)c3ccc(c(Cl)c3)Oc3cc2cc(c3O[C@@H]2O[C@H](CO)[C@@H](O)[C@H](O)[C@H]2O[C@H]2C[C@](C)(NCc3ccc(-c4ccc(Cl)cc4)cc3)[C@@H](O)[C@H](C)O2)Oc2ccc(cc2Cl)[C@H]1O [Oritavancin]
pH ([1]; 20% w/v HPCD reconstitution diluted in 0.9% saline: oritavancin 5 mg/mL, HPCD 2% w/v, 0 hr): 4.17 | pH ([1]; 20% w/v HPCD reconstitution diluted in 0.9% saline: oritavancin 5 mg/mL, HPCD 2% w/v, 0.08 hr): 4.17 | pH ([1]; 20% w/v HPCD reconstitution diluted in 0.9% saline: oritavancin 5 mg/mL, HPCD 2% w/v, 0.5 hr): 4.17 | pH ([1]; 20% w/v HPCD reconstitution diluted in 0.9% saline: oritavancin 5 mg/mL, HPCD 2% w/v, 1 hr): 4.17 | pH ([1]; 20% w/v HPCD reconstitution diluted in 0.9% saline: oritavancin 5 mg/mL, HPCD 2% w/v, 24 hr): 4.17 | pH ([1]; 20% w/v HPCD reconstitution diluted in 0.9% saline: oritavancin 5 mg/mL, HPCD 2% w/v, 720 hr): 4.32 | appearance / precipitation ([1]; 20% w/v HPCD reconstitution diluted to 5 mg/mL in 0.9% saline, for 24 hours): remained clear and colorless without any precipitation | appearance [1, 3]: clear and colorless | pH change [1, 3]: increased slightly | appearance / precipitation ([1]; 20% w/v HPCD reconstitution diluted to 6 mg/mL in 0.9% saline): remained clear and colorless without any visible precipitation | time for which no precipitation was observed ([1]; 20% w/v HPCD reconstitution pH adjusted (up to 7), diluted to 5 mg/mL in 0.9% saline): at least 12 hours | appearance ([1]; 20% w/v HPCD reconstitution, diluted to 5 mg/mL in 0.9% saline, pH 6.5 and above, for 24 hours): maintained clear and colorless | appearance / precipitation ([1]; 50% HPCD reconstitution diluted to 5 mg/mL in 0.9% saline, for 24 hours): remained clear and colorless without any precipitation | appearance [1, 4]: clear and colorless | pH change [1, 4]: increased slightly | pH ([1]; 50% w/v HPCD reconstitution diluted in 0.9% saline: oritavancin 5 mg/mL, HPCD 5% w/v, 0 hr): 4.14 | pH ([1]; 50% w/v HPCD reconstitution diluted in 0.9% saline: oritavancin 5 mg/mL, HPCD 5% w/v, 0.08 hr): 4.14 | pH ([1]; 50% w/v HPCD reconstitution diluted in 0.9% saline: oritavancin 5 mg/mL, HPCD 5% w/v, 0.5 hr): 4.14 | pH ([1]; 50% w/v HPCD reconstitution diluted in 0.9% saline: oritavancin 5 mg/mL, HPCD 5% w/v, 1 hr): 4.14 | pH ([1]; 50% w/v HPCD reconstitution diluted in 0.9% saline: oritavancin 5 mg/mL, HPCD 5% w/v, 24 hr): 4.15 | pH ([1]; 50% w/v HPCD reconstitution diluted in 0.9% saline: oritavancin 5 mg/mL, HPCD 5% w/v, 720 hr): 4.26 | time for which no precipitation was observed ([1]; 50% w/v HPCD reconstitution pH adjusted (up to 6.3), diluted to 5 mg/mL in 0.9% saline): at least 1 hour | time for which no precipitation was observed ([1]; 50% w/v HPCD reconstitution pH adjusted (up to 7), diluted to 5 mg/mL in 0.9% saline): at least 12 hours | appearance ([1]; 50% w/v HPCD reconstitution pH adjusted, diluted to 5 mg/mL in 0.9% saline, at 24 hours): Some discoloration | appearance ([1]; pH 5.7): Some discoloration | time for which solution maintains clarity ([1]; pH adjusted to pH 7 in saline using NaOH): at least 12 hours | stability in solution ([1]; reconstituted in 20% or 50% w/v HPCD, diluted into saline at 5 mg/mL): does not fall out of solution for at least one month | pH to which solution could be adjusted without any sign of precipitation ([2]; 57 mg/mL in 20% w/v aqueous HPCD, over 24 hours): 7 | pH to which solution could be adjusted without any sign of precipitation ([2]; 57 mg/mL in 50% w/v aqueous HPCD, over 24 hours): 7 | pH to which solution could be adjusted without any sign of precipitation ([2]; 57 mg/mL in 50% w/v aqueous HPCD, over an hour): 6.3 | Observations ([2]; 1N NaOH 0 μL, pH 3.95, oritavancin 57.14 mg/mL): Clear, colorless solution. | Observations ([2]; 1N NaOH 5 μL, pH 4.11, oritavancin 57.04 mg/mL): Clear, colorless solution | Observations ([2]; 1N NaOH 10 μL, pH 4.31, oritavancin 56.94 mg/mL): Clear, colorless solution | Observations ([2]; 1N NaOH 15 μL, pH 4.68, oritavancin 56.84 mg/mL): Clear, colorless solution | Observations ([2]; 1N NaOH 20 μL, pH 4.89, oritavancin 56.74 mg/mL): Clear, colorless solution | Observations ([2]; 1N NaOH 25 μL, pH 5.19, oritavancin 56.64 mg/mL): Clear, colorless solution | Observations ([2]; 1N NaOH 30 μL, pH 5.29, oritavancin 56.54 mg/mL): Clear, colorless solution | Observations ([2]; 1N NaOH 35 μL, pH 5.45, oritavancin 56.44 mg/mL): Clear, colorless solution. | Observations ([2]; 1N NaOH 40 μL, pH 5.57, oritavancin 56.34 mg/mL): Clear, colorless solution | Observations ([2]; 1N NaOH 45 μL, pH 5.63, oritavancin 56.23 mg/mL): Clear, colorless solution | Observations ([2]; 1N NaOH 50 μL, pH 5.69, oritavancin 56.13 mg/mL): Clear, colorless solution | Observations ([2]; 1N NaOH 55 μL, pH 5.82, oritavancin 56.03 mg/mL): Clear, colorless solution | Observations ([2]; 1N NaOH 60 μL, pH 5.87, oritavancin 55.92 mg/mL): Clear, colorless solution | Observations ([2]; 1N NaOH 65 μL, pH 5.95, oritavancin 55.82 mg/mL): Clear, colorless solution. | Observations ([2]; 1N NaOH 70 μL, pH 6.01, oritavancin 55.71 mg/mL): Clear, colorless solution | Observations ([2]; 1N NaOH 75 μL, pH 6.06, oritavancin 56.60 mg/mL): Clear, colorless solution | Observations ([2]; 1N NaOH 80 μL, pH 6.10, oritavancin 55.49 mg/mL): Clear, colorless solution | Observations ([2]; 1N NaOH 85 μL, pH 6.18, oritavancin 55.38 mg/mL): Clear, colorless solution | Observations ([2]; 1N NaOH 90 μL, pH 6.20, oritavancin 55.28 mg/mL): Clear, colorless solution | Observations ([2]; 1N NaOH 95 μL, pH 6.24, oritavancin 55.17 mg/mL): Clear, colorless solution | Observations ([2]; 1N NaOH 100 μL, pH 6.28, oritavancin 55.06 mg/mL): Clear, colorless solution | Observations ([2]; 1N NaOH 105 μL, pH 6.34, oritavancin 54.95 mg/mL): Clear, colorless solution | Observations ([2]; 1N NaOH 110 μL, pH 6.38, oritavancin 54.85 mg/mL): Clear, colorless solution | Observations ([2]; 1N NaOH 115 μL, pH 6.44, oritavancin 54.74 mg/mL): Clear, colorless solution | Observations ([2]; 1N NaOH 120 μL, pH 6.49, oritavancin 54.64 mg/mL): Clear, colorless solution. | Observations ([2]; 1N NaOH 125 μL, pH 6.52, oritavancin 54.52 mg/mL): Clear, colorless solution | Observations ([2]; 1N NaOH 130 μL, pH 6.54, oritavancin 54.41 mg/mL): Clear, colorless solution

Source: patent US20170239323A1, “ORITAVANCIN FORMULATIONS” (The Medicines Company, priority 2016, published 2017)
